# Reference: the NIST ThermoML archive (doi:10.1016/j.jct.2012.05.010)
# Numbers after ± are expanded uncertainties.
# Test: refractive index (Na D-line) (dimensionless)
# Conditions: 293.1 K; 101.33 kPa; Liquid; Standard Abbe refractometry
row,refractive index,SMILES
1,1.3803 ± 0.0005,CCCCn1cc[n+](C)c1.F[P-](F)(F)(F)(F)F [1-butyl-3-methylimidazolium hexafluorophosphate]
2,1.422 ± 0.0004,CCCCCCCCCCCC [dodecane]
3,1.4915 ± 0.0004,CCCc1ccccc1 [propylbenzene]
4,1.4289 ± 0.0004,CCCCCCCCCCCCCC [tetradecane]
